The conditions of this assay: generated by hydrolysis of Phe and Tyr in the animal blood circulation.

For Mep-Ile-Tuv [Mep-Ile-Tuv moiety], the “fold less potency than tubulysin A and D” value is recorded as “over 200 fold”.

The values above are taken from US10501412B2, “Conjugates of cell binding molecules with cytotoxic agents” (HANGZHOU DAC BIOTECH CO., LTD., priority 2012, dated 2019).
